# Data from patent US6121244A, “Antitumoral method by administration of partricin derivatives” (Prospa B.V., priority 1997, dated 2000).
# “Also recorded” adds a separate entry of the source. Like-named read-outs stand apart in the source and are kept apart here.
# What was measured:
# [1] = tested on: murine WEHI-3B (D+) myelomonocytic leukemia cells; test: Cytotoxicity by MTT microtiter test; type: cell-based; settings: for dose dependence of toxic effect: linear regression
# Method: A) Microtiter test (MTT) (Pessina et al. "In vitro short-term and long-term cytotoxicity of fluoroquinones on murine cell line", Ind. J.
# The cultures were incubated for 7 days at 37° C. in air+5% CO2 and finally 20 μl of MTT at a conc. of 5 mg/ml in PBS were added to each well. After 3-h incubation at 37° C. the cultures were destroyed with 100 μl of a lytic buffer prepared with sodium dodecylsulfate/dimethylforma-mide/acetic acid/HCl. After further overnight incubation, the optical density (OD) at 620 nm was determined with a microplate LP200 detector. The O.D. of the wells with no cells was considered as 0% proliferation. The O.D. of the wells with growing cells in drug-free medium was considered as 100% proliferation.
# Water solubility = type: physicochemical; settings: as salts, in particular diascorbate
# erythrocytes = settings: cited from earlier work; for total hemolytic conc. (THC): erythrocytes
# [2] = tested on: thyroid medullary carcinoma (TMC) cells; test: Cytotoxicity test (MTT) of cisplatin after pre-treatment with SPA-S-843; type: cell-based
# [3] = tested on: carcino-embryonic antigen (CEA); test: Carcino-embryonic antigen (CEA) in a patient under chemotherapy, CEA-RIA; type: in vivo, human (patient)
# [4] = tested on: murine WEHI-3B (D+) myelomonocytic leukemia cells; settings: clonogenic test; amphotericin B vs SPA-S-843; FIG. 4
# Method: Substances: SPA-S-843 and amphotericin B were dissolved in sterile bidistilled water to a concentration of 2000 μg/ml. The working solutions were prepared in McCoy medium supplemented with penicillin+streptomycin (100 U/ml +100 μg/ml) at the concentrations of from 200 μg/ml to 1.56 μg/ml by subsequent serial 1:2 dilutions.
# The murine WEHI-3B (D+) myelomonocytic leukemia cells were maintained through subcultures in 25-cm^2 plastic bottles in McCoy medium (Seromed, Germany) containing 5% FCS (Gibco, USA).
# Cell sensitivity to the toxic action of SPA-S-843 in comparison with that of amphotericin B, taken as reference substance, was determined by two different methods:
# Acta, 1013, 206-11, 1989).
# The clonogenic capacity of WEHI-3B(D+) cells was tested by culturing 300 cells in 0.3 ml of complete enriched medium [McCoy +10% FCS, 10 mM sodium pyruvate, 4% NEAA (10×), 4% Mem Vit (100×)]+0.3% agar in 35 mm Petri plates.
# SPA-S-843 and amphotericin B (100 μl) had previously been added to the Petri plates at serial concentrations of from 25 to 0.19 μg/ml. The control plates contained 100 μl of culture medium. The colonies were counted after 7 days of incubation at 37° C. in an atmosphere of air+5% CO2.
# [5] = mice, i.v.; cited from earlier work
Compound,"cytotoxicity on WEHI-3B(D+) cells, compared with amphotericin B ([1]; 7 days, FIG. 1)",dose dependence of toxic effect ([1]; FIG. 1),"IC10 ([1]; vs amphotericin B, FIG. 2)","IC50 ([1]; vs amphotericin B, FIG. 2)","IC90 ([1]; vs amphotericin B, FIG. 2)",water solubility (Water solubility),concentration at which lytic activity on erythrocytes appears (erythrocytes; of the order of) [ng/mL],potentiation of cisplatin cytotoxicity ([2]; incubation with SPA-S-843 (2 μg/ml)),effect on resistance of TMC cells to cisplatin ([2]; pre-treatment with SPA-S-843 (2 μg/ml)),"CEA after phase B ([3]; SPA-S-843 50 mg i.v. combined with 5-fluorouracil (500 mg) and folinic acid (250 mg), 3 weeks later) [ng/mL]","sensitivity to usual chemotherapeutic agents in combination with the polyene ([3]; combination with SPA-S-843, one patient)",total hemolytic conc. (THC) (erythrocytes) [µg/mL],IC10 [4],IC50 [4],IC90 [4],LD50 [5] [mg/kg]
"CNc1ccc(C(=O)CC(O)CCC(C)C2OC(=O)CC(O)CC(=O)CC(O)CC(O)CC(O)CC(O)CC3(O)CC(O)C(C(=O)NCCN(C)C)C(CC(OC4OC(C)C(O)C(NC(=O)CN(C)C)C4O)C=CC=CC=CC=CC=CC=CC=CC2C)O3)cc1 (stereo not drawn) [SPA-S-843, N-dimethylamino-acetyl-partricin A 2-dimethylaminoethylamide]",substantially higher; also recorded: more sensitive to SPA-S-843 than to amphotericin B,dose-related kinetics,significantly lower,significantly lower,significantly lower,water soluble,≥ 18000,able to potentiate cisplatin cytotoxicity against resistant cells up to the level of naturally sensitive cells; also recorded: cytotoxic for all TMC cells,substantially counteracted,65,re-established the sensitivity,–,–,–,–,–
"CNc1ccc(C(=O)CC(O)CCC(C)C2OC(=O)CC(O)CC(=O)CC(O)CC(O)CC(O)CC(O)CC3(O)CC(O)C(C(=O)NCCN(C)C)C(CC(OC4OC(C)C(O)C(NC(=O)CN(C)C)C4O)C=CC=CC=CC=CC=CC=CC=CC2C)O3)cc1 (stereo not drawn) [SPA-S-843 free base, N-dimethylamino-acetyl-partricin A 2-dimethylaminoethylamide]",–,–,–,–,–,–,–,–,–,–,–,> 18,–,–,–,–
C[C@@H]1[C@H](O)[C@@H](C)/C=C/C=C/C=C/C=C/C=C/C=C/C=C/[C@H](O[C@@H]2O[C@H](C)[C@@H](O)[C@H](N)[C@@H]2O)C[C@@H]2O[C@](O)(C[C@@H](O)C[C@@H](O)[C@H](O)CC[C@@H](O)C[C@@H](O)CC(=O)O[C@H]1C)C[C@H](O)[C@H]2C(=O)O [amphotericin B],–,dose-related kinetics,–,–,–,–,–,–,–,–,–,2,significantly higher,significantly higher,significantly higher,4.77
